# Measurements reported in patent US20020136733A1, “Malaria peptides” (priority 1994, published 2002).
# Read-outs that look alike come from different tables or passages of the source. Marks after values point to notes of the source that are not given here. Residues, ends and D or L forms follow the SMILES beside them.
# Key:
# [1] = tested on: HLA matched or autologous B cell line targets pre-pulsed with the peptide; experiment: CTL chromium release assay with restimulated lymphocytes from malaria-exposed Gambians; type: cell-based, human; conditions: for identified as an epitope for a secondary cytotoxic T lymphocyte response: asterisk beside the label in the table, HLA class I molecule
# Description: Peptides shown to bind to a particular HLA class I allele were tested for CTL recognition in assays using lymphocytes from malaria-exposed Gambians, as described previously^1. A minority of peptides, synthesized to correspond to a peptides binding motif were not tested in the relevant assembly assay but tested only for CTL recognition. Cells from 82 adult Gambians and 53 Gambian children, all exposed to malaria, were used in the course of these studies. The children and adults were HLA typed using cellular or molecular techniques as described previously^1. Peptides were incubated with cells either singly, or in pools as described^1 at concentrations of 10-100 μM. Peptides could either be left with the cells for the duration of restimulation (as reported^1) or washed off after an hour. Cells were cultured for 1-3 weeks before a standard CTL chromium release assay^1 was performed using HLA matched or autologous B cell line targets pre-pulsed with the peptide to be tested. Peptides were tested either singly or in pools for CTL recognition.
# HLA-B17 = experiment: HLA assembly assay, binding to HLA-B17 (T2 cell line transfected with HLA-B58); design: species or system human
# Excerpt: (§1) We have recently described a novel approach to identifying CTL epitopes and potential CTL epitopes in P. falciparum^1. This consisted, in brief, of 1) determining a motif for peptides bound to a particular KLA class I molecules, 2) synthesizing peptides from P. falciparum antigens congruent with this motif, 3) testing whether these peptides bind to that HLA class I allele using a binding assay known as a HLA assembly assay, and 4) testing whether lymphocytes from individuals exposed to malaria could recognise these peptides as epitopes after suitable in vitro restimulation and culture. In that work we identified peptide epitopes and potential peptide epitopes for two HLA class I molecules, HLA-B53 and HLA-B35. Here we extend that work to four further HLA class I molecules: HLA-A2, HLA-B8, HLA-B7 and HLA-B17. 52 peptides are identified that are shown either to be epitopes or potential epitopes for these HLA class I molecules.
# The peptide binding motifs of HLA-A2, HLA-B7 and HLA-B8 have been described. For HLA-A2 strong preferences were found at positions 2 and 9 of bound peptides: for leucine, isoleucine and methionine at position 2, and for valine, leucine and isoleucine at position 9^3, 4 For HLA-B7 the preferred residues were proline at position 2 and a hydrophobic residue at position 9. Leucine, isoleucine, valine, alanine, phenylalanine and tryptophan were the hydrophobic residues preferred^5. For HLA-B8 preferred residues were found at positions 3, 5 and 9^6. At positions 3 and 5 lysine or arginine are preferred and at position 9, leucine or isoleucine or valine. The motif for peptides bound to HLA-B17 has not been reported so we determined this exactly as described for HLA-B35^1, using instead of the cell line CIR-B35, the cell line CIR-B58.
# (§2) As described previously for identification of HLA-B35 and HLA-B53 epitopes^1, peptides were synthesised to correspond to these four motifs from the primary amino acid sequences of four P. falciparum pre-erythrocytic antigens: CSP, TRAP, LSA-1 and SHEBA. Over one hundred peptides were synthesized. […]
# HLA-B7 = biological target: T1, HLA-B7 (Homo sapiens, UniProt P01889); type: binding
# T1 construct: expressed in transfected cells; host or cells: T2 cell line
# T1 sequence (P61769 21-119): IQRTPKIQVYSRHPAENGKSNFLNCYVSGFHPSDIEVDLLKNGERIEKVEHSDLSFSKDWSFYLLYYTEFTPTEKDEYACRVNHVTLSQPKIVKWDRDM
# T1 sequence (P01889 25-362): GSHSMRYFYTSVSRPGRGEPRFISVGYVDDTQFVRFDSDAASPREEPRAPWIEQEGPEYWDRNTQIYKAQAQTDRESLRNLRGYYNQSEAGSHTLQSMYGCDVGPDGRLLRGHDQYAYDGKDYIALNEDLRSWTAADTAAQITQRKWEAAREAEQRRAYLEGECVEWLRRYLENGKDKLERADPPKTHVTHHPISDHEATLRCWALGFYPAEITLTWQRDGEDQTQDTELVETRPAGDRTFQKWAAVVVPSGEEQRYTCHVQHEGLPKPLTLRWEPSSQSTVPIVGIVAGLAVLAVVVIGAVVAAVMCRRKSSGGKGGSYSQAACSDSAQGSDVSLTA
# Excerpt: as §1
# (§3) As described previously for identification of HLA-B35 and HLA-B53 epitopes^1, peptides were synthesised to correspond to these four motifs from the primary amino acid sequences of four P. falciparum pre-erythrocytic antigens: CSP, TRAP, LSA-1 and SHEBA. Over one hundred peptides were synthesized. Binding assays^7 were performed on selected peptides to determine whether they bound to HLA-A2, -B7, -B8, or -B58 using the untransfected T2 cell line (for HLA-A2) or the T2 cell line transfected with HLA-B7 (used to assess binding to HLA-B7s), or with HLA-B8 (used to assess binding to HLA-B8), or with HLA-B58 (used to assess binding to HLA-B58).
# HLA-A2 = biological target: T2, HLA-A2 (Homo sapiens, UniProt P04439, D140Y/D185E/D98H/E176V/E277Q/G131W/G231S/I119V/I121R/I166T/I218V/L300P/L318F/N151K/N90K/P208A/P217A/Q86G/Q94H/R138H/R169H/T345S); experiment: HLA assembly assay, binding to HLA-A2 (untransfected T2 cell line)
# T2 construct: using the untransfected T2 cell line (for HLA-A2); endogenous in cells; host or cells: untransfected T2 cell line
# Excerpt: as §1, §3
# HLA-B8 = experiment: HLA assembly assay, binding to HLA-B8 (T2 cell line transfected with HLA-B8); design: species or system human
# Excerpt: as §1, §2
# [2] = T2 cell line transfected with HLA-B7
molecule,measurement,setting,value
"CSCC[C@H](N)C(=O)N1CCC[C@H]1C(=O)N[C@@H](CC(N)=O)C(=O)N[C@@H](Cc1ccc(O)cc1)C(=O)N1CCC[C@H]1C(=O)N[C@@H](CC(N)=O)C(=O)N[C@@H](CCCNC(=N)N)C(=O)N[C@@H](CC(N)=O)C(=O)N[C@H](C(=O)O)C(C)C [cp6.1, MPNYPNRNV] (H-MPNYPNRNV-OH; N-terminus and C-terminus assumed)",identified as an epitope for a secondary cytotoxic T lymphocyte response,[1],cp6.1 *
"CSCC[C@H](N)C(=O)N1CCC[C@H]1C(=O)N[C@@H](CC(N)=O)C(=O)N[C@@H](CC(N)=O)C(=O)N1CCC[C@H]1C(=O)N[C@@H](CC(N)=O)C(=O)N[C@@H](CCCNC(=N)N)C(=O)N[C@@H](CC(N)=O)C(=O)N[C@H](C(=O)O)C(C)C [cp6.2, MPNNPNRNV] (H-MPNNPNRNV-OH; N-terminus and C-terminus assumed)",identified as an epitope for a secondary cytotoxic T lymphocyte response,[1],cp6.2 *
"CC[C@H](C)[C@H](NC(=O)[C@@H](NC(=O)[C@H](CCCCN)NC(=O)[C@H](CC(C)C)NC(=O)[C@@H](N)Cc1ccc(O)cc1)[C@@H](C)O)C(=O)N[C@@H](CCC(N)=O)C(=O)N[C@@H](CC(N)=O)C(=O)N[C@@H](CO)C(=O)N[C@@H](CC(C)C)C(=O)O [cp36, YLKTIQNSL] (H-YLKTIQNSL-OH; N-terminus and C-terminus assumed)",identified as an epitope for a secondary cytotoxic T lymphocyte response,[1],cp36 *
"CC[C@H](C)[C@H](NC(=O)[C@H](CCCCN)NC(=O)[C@H](CCC(N)=O)NC(=O)[C@H](CC(C)C)NC(=O)[C@@H](N)Cc1ccc(O)cc1)C(=O)N[C@@H](CCC(N)=O)C(=O)N[C@@H](CC(N)=O)C(=O)N[C@@H](CO)C(=O)N[C@@H](CC(C)C)C(=O)O [cp37, YLQKIQNSL] (H-YLQKIQNSL-OH; N-terminus and C-terminus assumed)",identified as an epitope for a secondary cytotoxic T lymphocyte response,[1],cp37 *
"CC[C@H](C)[C@H](NC(=O)[C@H](CCCCN)NC(=O)[C@H](CCC(N)=O)NC(=O)[C@H](CC(C)C)NC(=O)[C@@H](N)Cc1ccc(O)cc1)C(=O)N[C@@H](CCCCN)C(=O)N[C@@H](CC(N)=O)C(=O)N[C@@H](CO)C(=O)N[C@@H](CC(C)C)C(=O)O [cp38, YLQKIKNSL] (H-YLQKIKNSL-OH; N-terminus and C-terminus assumed)",identified as an epitope for a secondary cytotoxic T lymphocyte response,[1],cp38 *
"CC(C)C[C@H](NC(=O)[C@H](Cc1ccc(O)cc1)NC(=O)[C@H](CCCCN)NC(=O)[C@@H](NC(=O)[C@H](CC(N)=O)NC(=O)CNC(=O)[C@H](CC(C)C)NC(=O)[C@@H](N)Cc1c[nH]cn1)C(C)C)C(=O)N[C@H](C(=O)O)C(C)C [tr26, HLGNVKYLV] (H-HLGNVKYLV-OH; N-terminus and C-terminus assumed)",identified as an epitope for a secondary cytotoxic T lymphocyte response,[1],tr26 *
"CC[C@H](C)[C@H](NC(=O)CN)C(=O)N[C@@H](C)C(=O)NCC(=O)NCC(=O)N[C@@H](CC(C)C)C(=O)N[C@@H](C)C(=O)N[C@@H](CC(C)C)C(=O)N[C@@H](CC(C)C)C(=O)O [tr39, GIAGGLALL] (H-GIAGGLALL-OH; N-terminus and C-terminus assumed)",identified as an epitope for a secondary cytotoxic T lymphocyte response,[1],tr39 *
"CC(C)C[C@H](NC(=O)[C@H](C)NC(=O)[C@H](CCCCN)NC(=O)[C@H](CCC(=O)O)NC(=O)[C@H](CCCCN)NC(=O)[C@H](CC(N)=O)NC(=O)[C@H](CCCCN)NC(=O)[C@H](CO)NC(=O)[C@H](C)N)C(=O)O [tr42, ASKNKEKAL] (H-ASKNKEKAL-OH; N-terminus and C-terminus assumed)",identified as an epitope for a secondary cytotoxic T lymphocyte response,[1],tr42 *
"CC[C@H](C)[C@H](NC(=O)[C@@H](NC(=O)[C@H](CC(C)C)NC(=O)[C@H](C)NC(=O)[C@H](CCCCN)NC(=O)[C@H](CCC(=O)O)NC(=O)[C@H](CCCCN)NC(=O)[C@H](CC(N)=O)NC(=O)[C@@H](N)CCCCN)[C@@H](C)CC)C(=O)O [tr43, KNKEKALII] (H-KNKEKALII-OH; N-terminus and C-terminus assumed)",identified as an epitope for a secondary cytotoxic T lymphocyte response,[1],tr43 *
"CSSVFNVV [cp56, circumsporozoite protein peptide, position 388, HLA-B17]",binding to HLA-B17 in the HLA assembly assay,HLA-B17,bind
EPAPFDETL [tr15],binding to HLA-B7 in the HLA assembly assay,HLA-B7; [2],bind
"GIYKELEDL [ls19, LSA-1 peptide, position 1801, HLA-A2]",binding to HLA-A2 in the HLA assembly assay,HLA-A2,bind
GPFMKAVCV [tr21],binding to HLA-B7 in the HLA assembly assay,HLA-B7; [2],bind
"GSANKPKDEL [cp55, circumsporozoite protein peptide, position 364, HLA-B17]",binding to HLA-B17 in the HLA assembly assay,HLA-B17,bind
"HIFDGDNEI [ls23, LSA-1 peptide, position 1883, HLA-A2]",binding to HLA-A2 in the HLA assembly assay,HLA-A2,bind
ILYISFYFI [ls10],binding to HLA-A2 in the HLA assembly assay,HLA-A2,bind
IPDSIQDSL [tr13],binding to HLA-B7 in the HLA assembly assay,HLA-B7; [2],bind
"IPSLALMLI [sh1, SHEBA peptide, position 7, HLA-B7]",binding to HLA-B7 in the HLA assembly assay,HLA-B7; [2],bind
"KPIVQYDNF [ls6, LSA-1 peptide, position 1786, HLA-B7]",binding to HLA-B7 in the HLA assembly assay,HLA-B7; [2],bind
"LLMDCSGSI [tr29, TRAP peptide, position 51, HLA-A2]",binding to HLA-A2 in the HLA assembly assay,HLA-A2,bound
"LRKPKHKKL [cp43, circumsporozoite protein peptide, position 134, HLA-B8]",CTL recognition / lysis of peptide-pulsed target cells,"[1]; Gambian adults with HLA-B8 (Z42, Z130, Z80, Z169), 10% or greater specific lysis regarded as significant",HLA-B8-restricted CTL epitope
same,binding to HLA-B8 in the HLA assembly assay,HLA-B8,bound
"LSVSSFLFV [cp48, circumsporozoite protein peptide, position 8, HLA-B17]",binding to HLA-B17 in the HLA assembly assay,HLA-B17,bind
MPLETQLAI [sh6],binding to HLA-B7 in the HLA assembly assay,HLA-B7,bind
NPDPNANPNV [cp21],binding to HLA-B7 in the HLA assembly assay,HLA-B7; [2],bind
"NPENPPNPDI [tr6, TRAP peptide, position 348, HLA-B7]",binding to HLA-B7 in the HLA assembly assay,HLA-B7; [2],bind
YISFYFILV [ls11],binding to HLA-A2 in the HLA assembly assay,HLA-A2,bind
